The nature of series [1]: Anti-oxidation activity (2): prevention of oxidation of unsaturated fatty acid over time (FIG. 5). It is filed as biochemical. To be noted: 200 ppm, 37° C., pH 7.4. On the procedure:
(§1) An anti-oxidation activity of 4-hydroxy-5-methyl-3[2H]-furanone was examined as follows:
1.0 ml of 0.2M potassium phosphate buffer(pH 7.4) containing 2mg/ml of linolenic acid, 10 mg/ml of Tween-20 and 200 ppm of L-ascorbic acid, tocopherol or 4-hydroxy-5-methyl-3[2H]-furanone was allowed to stand at 37° C. for 24 hours. For a control, 1.0 ml of 0.2M potassium phosphate buffer(pH 7.4) containing 2 mg/ml of linolenic acid and 10 mg/ml of Tween-20 was employed.
The same procedure as that of Experimental Example 2 was carried out to evaluate the anti-oxidation activity of test compounds.
In FIG. 5, the longitudinal axis indicates an amount of fatty peroxide represented by an absorbance at 500 nm and the horizontal axis indicates the time in days.

The next series addresses T1, tyrosinase (Agaricus bisporus, UniProt C7FF04).
T1 construct: purchased SIGMA
The experiment in a line: Tyrosinase-inhibiting action. It is filed as biochemical. The settings on record: pH 6.8, 37° C., 10 minutes, tyrosine substrate. On the procedure:
As an enzyme, tyrosinase purchased from SIGMA was used. […] Water were used to dilute the test compounds. As a control, 0.9 ml of 1:1 mixture of ethanol and water was used. […] The test tube was quickly cooled in an ice water bath to stop the reaction, and the absorbance was measured at 475 nm. The tyrosinase-inhibitory activities of the test compounds were calculated by using the following equation: [formula] From the inhibitions(%) of a series of dilutions of test compounds, IC50, i.e., the concentration of test compound which inhibit tyrosinase by 50% was calculated for each test compound.

Another series deals with murine melanoma cells. The experiment in a line: Inhibitive effect on melanin formation in melanoma cells. It is filed as cell-based. To be noted: Mus musculus, 48 h, 37° C., by observing the color of the cells, read-out: concentration with inhibitive effect on melanin formation within melanoma cells. On the procedure: (§2) 4-hydroxy-5-methyl-3[2H]-furanone obtained by the method of the invention has an excellent activity to inhibit melanin formation.
To a T-shaped flask containing […] of Eagle's medium containing 10% fetal calf essential medium was added murine melanoma cells in an amount of 5×10^4 cells/30 ml. […] After the cultivation, the cells were collected and examined for melanin formation of the cells by observing the color of the cells.

Series [2] can be described thus: Anti-oxidation activity (1): inhibition of autonomous oxidation of linolenic acid, absorbance at 500 nm. It is filed as biochemical. The settings on record: for concentration showing 90% inhibition of autonomous oxidation of linolenic acid: pH 7.4, 37° C., 24 hours, for the extract: concentration of 4-hydroxy-5-methyl-3[2H]-furanone. As for the experimental part: as §1
To 1.0 ml of 0.2M potassium phosphate buffer(pH 7.4) containing 2 mg/ml of linolenic acid and 10 mg/ml of Tween-20 was added the extract obtained from Lichrosorb RP-18 column in Example 1, which contains a serial concentrations of 10~2000 ppm of 4-hydroxy-5-methyl-3[2H]-furanone. […] The resulting mixture was allowed at 37° C. for 24 hours. 0.1 ml of the reaction mixture was taken and diluted with 9.7 ml of ethanol. 0.1 ml of 30% ammonium thiocyanide and 0.1 ml of a mixture of 5% ferrous ammonium sulfate and 3.5% […] were added, and 3 minutes later, an absorbance at 500 nm was measured to evaluate an automatic oxidation of fatty acid.

The next series is described as follows: in vitro. It is filed as cell-based. To be noted: fibroblast cells.
Text: as §2

From patent US5602259A, “Method for producing 4-hydroxy-5-methyl-3[2H]-furanone and uses of same” (priority 1993, dated 1997) come the findings set out here.

SMILES strings stand for the structures. pIC50: −log10 of the molar value.

T1 sequence (C7FF04 2-392 limits assumed): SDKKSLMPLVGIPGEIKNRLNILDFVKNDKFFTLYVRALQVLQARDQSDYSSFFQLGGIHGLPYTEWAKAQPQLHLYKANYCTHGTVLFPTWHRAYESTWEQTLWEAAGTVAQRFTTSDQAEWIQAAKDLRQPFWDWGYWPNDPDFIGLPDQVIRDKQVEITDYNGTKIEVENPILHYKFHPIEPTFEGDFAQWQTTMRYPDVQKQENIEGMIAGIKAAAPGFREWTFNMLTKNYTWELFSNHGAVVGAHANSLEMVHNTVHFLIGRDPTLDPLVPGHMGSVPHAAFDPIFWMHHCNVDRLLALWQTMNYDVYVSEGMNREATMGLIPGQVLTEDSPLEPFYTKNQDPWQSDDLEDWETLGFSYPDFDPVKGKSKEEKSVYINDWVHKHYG

On to `CC1=C(O)C(=O)CO1` [4-hydroxy-5-methyl-3[2H]-furanone], for which the “prevention of oxidation of unsaturated fatty acid (in words)” value in series [1] is listed as “can prevent more efficiently the oxidation of unsaturated fatty acid than the same amount of L-ascorbic acid or α-tocopherol”. The pIC50 on tyrosinase is 4.28. Also, the minimal effective concentration in the series on murine melanoma cells lay in the range of 10 to 20 µg/mL. Also, in series [2] (compared with maltol, kojic acid or L-ascorbic acid), the “anti-oxidation activity (in words)” value is given as “superior over maltol, kojic acid or L-ascorbic acid”. In the series “in vitro”, this compound yielded an MCC at 48 h of over 500 µg/mL.

In “in vitro”, `O=C1O[C@H]([C@@H](O)CO)C(O)=C1O` [ascorbic acid, L-ascorbic acid] returned an MCC at 48 h of 50 µg/mL.

On to `O=c1cc(CO)occ1O` [kojic acid], for which the “concentration showing 90% inhibition of autonomous oxidation of linolenic acid” value in series [2] worked out at 600 ppm. Further, in “in vitro”, the MCC at 48 h is over 500 µg/mL.

`Cc1occc(=O)c1O` [maltol]: the “concentration showing 90% inhibition of autonomous oxidation of linolenic acid” value in series [2] is listed as 460 ppm.
